We go through 4 compounds from article PMC10170656 (RSC Chemical Biology, 2023).

The target in one series is TDP1 (Homo sapiens, UniProt Q9NUW8). The series can be described thus: biochemical. Conditions: TDP1 IC50, Table 2: triazole, ether and phthalic acid isostere derivatives.
The test system of a further series is HCT116 cells. Nature of the series: Synergistic effect of TDP1 inhibitors with camptothecin. To be noted: concentrations below CC50, 72 h. Type of series: cell-based, human.
A further series deals with T1, TDP2 (Homo sapiens, UniProt O95551).
T1 sequence (O95551 1-362): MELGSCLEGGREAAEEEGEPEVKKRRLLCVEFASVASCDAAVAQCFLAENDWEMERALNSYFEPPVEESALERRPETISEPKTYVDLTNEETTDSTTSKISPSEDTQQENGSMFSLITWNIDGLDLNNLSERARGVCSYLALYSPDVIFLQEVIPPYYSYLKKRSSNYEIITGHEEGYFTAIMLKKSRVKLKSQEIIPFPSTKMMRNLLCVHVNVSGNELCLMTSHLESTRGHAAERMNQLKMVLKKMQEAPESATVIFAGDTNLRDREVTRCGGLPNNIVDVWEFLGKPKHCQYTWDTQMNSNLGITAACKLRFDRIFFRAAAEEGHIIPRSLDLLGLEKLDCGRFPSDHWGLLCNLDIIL
Type of series: biochemical.

Series [1] in a line: Survival curve and cytotoxicity in HCT116 cells. To be noted: human, HCT116 cells (colon cancer cell line). Type of series: cell-based.

“Also recorded” adds a separate entry of the source.

TDP1, sequence (Q9NUW8 whole entry): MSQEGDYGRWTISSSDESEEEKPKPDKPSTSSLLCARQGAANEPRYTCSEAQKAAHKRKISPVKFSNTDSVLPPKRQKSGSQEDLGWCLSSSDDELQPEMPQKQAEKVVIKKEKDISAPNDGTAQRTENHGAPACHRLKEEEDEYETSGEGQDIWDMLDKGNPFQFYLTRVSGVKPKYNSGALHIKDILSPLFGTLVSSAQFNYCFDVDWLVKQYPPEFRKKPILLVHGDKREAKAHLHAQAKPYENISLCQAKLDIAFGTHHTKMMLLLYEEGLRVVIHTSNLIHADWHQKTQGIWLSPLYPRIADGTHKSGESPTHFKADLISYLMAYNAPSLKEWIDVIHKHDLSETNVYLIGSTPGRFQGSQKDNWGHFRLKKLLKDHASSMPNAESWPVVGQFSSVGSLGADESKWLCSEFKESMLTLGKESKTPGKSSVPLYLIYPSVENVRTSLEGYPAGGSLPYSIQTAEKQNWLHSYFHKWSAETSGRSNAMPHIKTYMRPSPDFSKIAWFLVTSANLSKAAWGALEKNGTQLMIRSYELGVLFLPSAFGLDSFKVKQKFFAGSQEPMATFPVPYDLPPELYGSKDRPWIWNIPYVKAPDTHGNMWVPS

The IC50 is the midpoint of a concentration-inhibition curve. Read a low IC50 as greater potency. In the case of `O=C(O)c1ccc(Nc2c(-c3ccc(CCOCc4ccc(-c5ccccc5)cc4)cc3)nc3cc(-c4ccccc4)ccn23)cc1C(=O)O` [Compound 9b, 4-((2-(4-(2-([1,1'-biphenyl]-4-ylmethoxy)ethyl)phenyl)-7-phenylimidazo[1,2-a]pyridin-3-yl)amino)phthalic acid], the IC50 against TDP1 amounted to 11.3 ± 1.93 µM.

At TDP1, `O=C(O)c1ccc(Nc2c(-c3ccc(CCOCc4ccc(-c5ccccn5)cc4)cc3)nc3cc(-c4ccccc4)ccn23)cc1C(=O)O` [Compound 9c, 4-((7-phenyl-2-(4-(2-((4-(pyridin-2-yl)benzyl)oxy)ethyl)phenyl)imidazo[1,2-a]pyridin-3-yl)amino)phthalic acid] returned an IC50 of 19.8 ± 1.35 µM.

For the compound `O=C(O)c1ccc(Nc2c(-c3ccccc3)nc3cc(-c4ccccc4)ccn23)cc1C(=O)O` [Compound 9a, 4-((2,7-diphenylimidazo[1,2-a]pyridin-3-yl)amino)phthalic acid], the IC50 on TDP1 is above 100 µM.

As usually defined, the CC50 is the concentration giving 50% cytotoxicity. For the compound `N#Cc1ccc(-c2ccc(Cn3cc(-c4ccc(-c5nc6cc(-c7ccccc7)ccn6c5Nc5ccc(C(=O)O)cc5)cc4)nn3)cc2)nc1` [Compound 7d], the “synergy with the TOP1 inhibitor CPT” value with HCT116 cells was “act synergistically; also recorded: synergize”. At TDP2, the “inhibitory potency against TDP1 relative to TDP2” value came out at 8 fold. Also, the IC50 on TDP1 worked out at 3.3 ± 0.2 µM. The midpoint of cytotoxicity in series [1], the CC50 at 72 h, lay at 136 µM.
